Results as given in patent US20230201217A1 (priority 2019, published 2023).

What was measured:
[1] = molecular target: T1, rat α3β4 nicotinic acetylcholine receptor (nAChR) (Rattus norvegicus, UniProt P04757+P12392); assay: cell-based
T1 construct: expressed in transfected cells; host or cells: HEK 293 (ATCC CRL1573), transient, Lipofectamine 2000

[2] = tested on: Sprague Dawley rats; assay: Modified Irwin test, pilot dose finding study, female rats; type: in vivo, rat; settings: single oral dose 30-800 mg/kg
Procedure: Under the conditions of this study, the no-observed-effect level (NOEL) and no-observed-adverse-effect level (NOAEL) were considered to be 90 mg/kg and 400 mg/kg, respectively.

[3] = Pharmacokinetics in rats; type: in vivo, rat
Procedure: 18-MC is rapidly absorbed and distributed into the brain and fat tissues in rats dosed with 40 mg/kg p.o. or i.p. The estimated volume of distribution is 8 L/kg. 18-MC levels in fat were 4.2 μM and 2.5 μM at 2 hours and 24 hours, respectively. […] On oral administration, it appears that the major metabolites are either M4 or M5, depending on the animal species tested. M4 and M5 are the primary circulating drug species because they are present at proportions greater than 18-MC. […] In the animal species tested its half-life is less than 2 hours at lower doses. At high doses a long elimination phase is evident (ranging from 9 to 20 hours in rats). 18-MC is highly protein bound (95-98%).

[4] = Toxicokinetics, 14-day oral gavage study in CD-1 mice; type: in vivo, mouse
Procedure: The relative metabolite concentrations were determined from plasma samples obtained on the last day of dosing in the 25 mg/kg/day group of animals using a UPLC/MS/MS method. Major metabolites were identified as M2 and M4, followed by M8 and M9. The parent 18-MC exposure was less than 1% of the total drug related material. No significant sex differences were observed.
All test article-treated animals underwent up-titration of dosage levels prior to reaching the maximum daily dose, which was administered for 14 consecutive days. […] The dose volume was 10 mL/kg for all groups. Groups 1 and 4 each consisted of 25 animals/sex and Groups 2-3 each consisted of 20 animals for each sex. Following 14 days of dose administration, 15 mice/sex/toxicology group were euthanized; the remaining 5, (10 for the control and high dose group) mice/sex/toxicology group were euthanized following a 14-day nondosing (recovery) period. Following the final blood collection (study day 13), all toxicokinetic animals (from a satellite group of 18 animals/sex/dose level) were euthanized.

[5] = tested on: polychromatic erythrocytes in mouse bone marrow; assay: Mouse bone marrow in vivo micronucleus assay
Procedure: Treatment resulted and clinical signs of lethargy and piloerection at doses of 200-400 mg/kg and in mortality of male and female ICR mice at doses of 300 and 400 mg/kg. The highest non-lethal dose was 250 mg/kg.
These doses were based upon prior toxicology data indicating higher doses were associated with mortality in this species. […] A positive control group received a single oral dose of 60 mg/kg cyclophosphamide on Day 2, the day prior to the scheduled euthanasia. Each group consisted of 6 males. Males only were used as no significant differences in response related to gender were expected based upon prior toxicology and toxicokinetic data. All animals were euthanized on Day 3, the day following the final dose and discarded following bone marrow collection.
All animals were observed twice daily for mortality and moribundity. Bone marrow collection for micronucleus evaluation was performed for 5 of the 6 animals in each group at the scheduled euthanasia (Day 3). All animals were discarded without necropsy. Bone marrow smears were prepared, and the coded slides were counted for polychromatic, normochromatic, and micronucleated polychromatic erythrocytes following the final bone marrow sample collection on Day 3.

[6] = molecular target: CYP2C9 (Homo sapiens, UniProt P11712); settings: recombinant enzyme
Procedure: Control incubations were performed for each assay with appropriate positive inhibitory controls.

[7] = tested on: animal substance use models; settings: i.p.; cited from earlier work
[8] = after 14 days of 25 mg/kg 18-MC HCl

T1 sequence (P04757 26-499): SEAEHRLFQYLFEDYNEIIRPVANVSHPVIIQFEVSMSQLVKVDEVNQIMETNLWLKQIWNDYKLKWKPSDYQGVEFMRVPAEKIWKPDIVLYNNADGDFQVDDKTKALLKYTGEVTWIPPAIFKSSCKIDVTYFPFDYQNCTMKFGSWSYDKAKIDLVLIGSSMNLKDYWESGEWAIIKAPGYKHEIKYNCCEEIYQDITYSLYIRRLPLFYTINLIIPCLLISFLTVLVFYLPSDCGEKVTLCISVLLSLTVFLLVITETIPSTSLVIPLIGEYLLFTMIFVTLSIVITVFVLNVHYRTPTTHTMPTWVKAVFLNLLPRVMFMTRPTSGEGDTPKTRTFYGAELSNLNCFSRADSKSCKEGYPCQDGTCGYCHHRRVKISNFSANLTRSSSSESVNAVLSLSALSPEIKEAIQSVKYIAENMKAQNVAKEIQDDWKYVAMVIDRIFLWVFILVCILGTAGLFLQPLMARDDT
T1 sequence (P12392 21-495): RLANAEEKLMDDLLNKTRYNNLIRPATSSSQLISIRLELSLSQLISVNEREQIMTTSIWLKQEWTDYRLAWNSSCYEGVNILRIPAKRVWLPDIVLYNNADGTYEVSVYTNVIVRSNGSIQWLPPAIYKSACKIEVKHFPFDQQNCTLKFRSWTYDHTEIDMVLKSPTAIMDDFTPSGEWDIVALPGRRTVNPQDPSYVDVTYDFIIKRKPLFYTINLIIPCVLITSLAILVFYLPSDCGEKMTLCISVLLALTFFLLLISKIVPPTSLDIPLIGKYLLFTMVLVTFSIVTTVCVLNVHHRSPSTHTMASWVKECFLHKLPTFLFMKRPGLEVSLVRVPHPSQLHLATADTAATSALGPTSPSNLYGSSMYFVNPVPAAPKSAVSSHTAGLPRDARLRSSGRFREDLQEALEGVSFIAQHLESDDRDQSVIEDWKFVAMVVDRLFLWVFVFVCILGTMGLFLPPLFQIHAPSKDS
Sequence of CYP2C9 (P11712 whole entry): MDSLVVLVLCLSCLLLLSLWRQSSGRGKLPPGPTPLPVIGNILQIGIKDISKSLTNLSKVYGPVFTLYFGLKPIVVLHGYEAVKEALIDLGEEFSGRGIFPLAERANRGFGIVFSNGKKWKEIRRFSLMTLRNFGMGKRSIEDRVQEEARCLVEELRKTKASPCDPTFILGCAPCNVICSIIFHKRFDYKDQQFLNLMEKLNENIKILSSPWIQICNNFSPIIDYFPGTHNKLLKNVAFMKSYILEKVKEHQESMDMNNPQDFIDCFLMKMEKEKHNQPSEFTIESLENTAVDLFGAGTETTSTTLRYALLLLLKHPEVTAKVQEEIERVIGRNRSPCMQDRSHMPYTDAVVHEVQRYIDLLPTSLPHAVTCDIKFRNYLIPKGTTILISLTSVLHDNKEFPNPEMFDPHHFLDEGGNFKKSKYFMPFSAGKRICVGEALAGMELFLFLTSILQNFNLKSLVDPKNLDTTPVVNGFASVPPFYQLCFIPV

COCCC1CC2CN3CCc4c([nH]c5ccccc45)C(C(=O)OC)(C2)C13.Cl (stereo not shown) [18-MC HCl, 18-Methoxycoronaridine hydrochloride]
Max Inhibition 20-30 μM [1]: 98 ± 1% | Persistent Inhibition at 1 sec [1]: 88 ± 3% | no-observed-adverse-effect level (NOAEL) [2]: 400 mg/kg | no-observed-effect level (NOEL) [2]: 90 mg/kg | oral bioavailability ([3]; 60 mg/kg): about 8% | AUC(0-24) ([4]; Day 0, Female, 25 mg/kg/day): 77.8 ng·h/mL | Cmax ([4]; Day 0, Female, 25 mg/kg/day): 30.8 ng/mL | Tmax ([4]; Day 0, Female, 25 mg/kg/day): 30 min | AUC(0-24) ([4]; Day 0, Female, 50 mg/kg/day): 56.2 ng·h/mL | Cmax ([4]; Day 0, Female, 50 mg/kg/day): 23.7 ng/mL | Tmax ([4]; Day 0, Female, 50 mg/kg/day): 30 min | AUC(0-24) ([4]; Day 0, Female, 100 mg/kg/day): 187 ng·h/mL | Cmax ([4]; Day 0, Female, 100 mg/kg/day): 51.8 ng/mL | Tmax ([4]; Day 0, Female, 100 mg/kg/day): 60 min | AUC(0-24) ([4]; Day 0, Male, 25 mg/kg/day): 66.6 ng·h/mL | Cmax ([4]; Day 0, Male, 25 mg/kg/day): 19.4 ng/mL | Tmax ([4]; Day 0, Male, 25 mg/kg/day): 30 min | AUC(0-24) ([4]; Day 0, Male, 50 mg/kg/day): 108 ng·h/mL | Cmax ([4]; Day 0, Male, 50 mg/kg/day): 44.3 ng/mL | Tmax ([4]; Day 0, Male, 50 mg/kg/day): 30 min | AUC(0-24) ([4]; Day 0, Male, 100 mg/kg/day): 349 ng·h/mL | Cmax ([4]; Day 0, Male, 100 mg/kg/day): 131 ng/mL | Tmax ([4]; Day 0, Male, 100 mg/kg/day): 60 min | AUC(0-24) ([4]; Day 13, Female, 25 mg/kg/day): 54.5 ng·h/mL | Cmax ([4]; Day 13, Female, 25 mg/kg/day): 25.6 ng/mL | Tmax ([4]; Day 13, Female, 25 mg/kg/day): 30 min | AUC(0-24) ([4]; Day 13, Female, 50 mg/kg/day): 119 ng·h/mL | Cmax ([4]; Day 13, Female, 50 mg/kg/day): 49.9 ng/mL | Tmax ([4]; Day 13, Female, 50 mg/kg/day): 30 min | AUC(0-24) ([4]; Day 13, Female, 100 mg/kg/day): 188 ng·h/mL | Cmax ([4]; Day 13, Female, 100 mg/kg/day): 44.0 ng/mL | T1/2 ([4]; Day 13, Female, 100 mg/kg/day): 147 min | Tmax ([4]; Day 13, Female, 100 mg/kg/day): 30 min | AUC(0-24) ([4]; Day 13, Male, 25 mg/kg/day): 50.5 ng·h/mL | Cmax ([4]; Day 13, Male, 25 mg/kg/day): 23.6 ng/mL | Tmax ([4]; Day 13, Male, 25 mg/kg/day): 30 min | AUC(0-24) ([4]; Day 13, Male, 50 mg/kg/day): 164 ng·h/mL | Cmax ([4]; Day 13, Male, 50 mg/kg/day): 92.9 ng/mL | T1/2 ([4]; Day 13, Male, 50 mg/kg/day): 107 min | Tmax ([4]; Day 13, Male, 50 mg/kg/day): 30 min | AUC(0-24) ([4]; Day 13, Male, 100 mg/kg/day): 329 ng·h/mL | Cmax ([4]; Day 13, Male, 100 mg/kg/day): 136 ng/mL | T1/2 ([4]; Day 13, Male, 100 mg/kg/day): 116 min | Tmax ([4]; Day 13, Male, 100 mg/kg/day): 30 min | lethality ([5]; GLP, 120 mg/kg/day group, within 3 hours of dosing): Lethality was observed in a single animal | incidence of micro-nucleated polychromatic erythrocytes (MPCE) ([5]; non-GLP, 250 mg/kg and less): No significant increase | highest non-lethal dose ([5]; non-GLP, single oral dose, suspension in PBS pH 7.4, ICR mice): 250 mg/kg | IC50 [6]: < 1500 nM | lowest dosage that significantly reduces drug self-administration [7]: ≥ 10 mg/kg

COCC[C@H]1CC2CN3CCc4c([nH]c5ccccc45)[C@](C(=O)OC)(C2)[C@H]13 [18-MC, 18-methoxycoronaridine]
Ipeak [1]: 50 ± 4% of ACh | Iss [1]: 34 ± 5% of peak | τdecay [1]: 298 ± 23 ms | IC50 ([1]; read-out: IC50, inhibition of ACh-evoked currents): 800 nM | no-observed-adverse-effect level (NOAEL) [2]: 400 mg/kg | no-observed-effect level (NOEL) [2]: 90 mg/kg | estimated volume of distribution ([3]; 40 mg/kg p.o. or i.p.): 8 L/kg | oral bioavailability for total drug substance (AUC of 18-MC and its metabolites) ([3]; 60 mg/kg): about 25% | 18-MC level in fat ([3]; 2 hours): 4.2 µM | 18-MC level in fat ([3]; 24 hours): 2.5 µM | AUC [4, 8]: 251 ng·h/mL | Cmax [4, 8]: 105 ng/mL | bone marrow cytotoxicity and clastogenic activity ([5]; GLP, 50, 75, 120 mg/kg/day for 3 days): negative response | IC50 [6]: 4100 nM | lowest dosage that significantly reduces drug self-administration [7]: ≥ 10 mg/kg
